Literature values as cited in US11197823B2, “Topiramate oral liquid suspension and use thereof” (OWP Pharmaceuticals, Inc., priority 2019, dated 2021).

SMILES: CC1(C)O[C@@H]2[C@@H](CO[C@@]3(COS(N)(=O)=O)OC(C)(C)O[C@@H]23)O1 [Topiramate, 2,3:4,5-Di-O-isopropylidene-β-D-fructopyranose sulfamate]
- solubility in organic solvents and alkaline solutions (acetone, dimethyl sulfoxide, ethanol, and alkaline solutions containing sodium hydroxide or sodium phosphate): freely soluble
- solubility in water (water, room temperature): approximately 9.8 mg/mL
